Results from patent US20260158018A1, “PERFUSATE CONTAINING NICOTINAMIDE FOR INTRAOCULAR SURGERY, METHOD OF PREPARATION AND USE THEREOF” (EYE INSTITUTE OF SHANDONG FIRST MEDICAL UNIVERSITY …, priority 2023, published 2026).

Tests used:
[1] = test system: rabbit CECs; experiment: Rabbit lens phacoemulsification model with NAM-containing perfusate; assay type: in vivo, New Zealand white rabbits; details: for corneal transparency / edema: 2 days after surgery; for corneal transparency / edema / recovery of corneal thickness / protective effect on CECs in phacoemulsification: NAM versus Gln in perfusate; for corneal transparency / edema / recovery of corneal thickness: FIG. 7; for protective effect on CECs in phacoemulsification: conclusion
Experimental: Animals: New Zealand white rabbits (age, 1.5 years; weight, 5-7 kg) were purchased from Jinan Xilingjiao Biological Co., Ltd. New Zealand white rabbits were kept in a pathogen-free environment in the animal house of the Eye Institute of Shandong First Medical University.
Animal model: the pupils were dilated three times with 0.5% compound tropicamide eye drops. Sedation was performed first, and the rabbits were anesthetized according to 20 mg/kg intramuscular injection of xylazine hydrochloride injection and 3% pentobarbital sodium injection (15 mg/kg) intravenously at the ear margin. The right eye of each rabbit was subjected to phacoemulsification for lens removal using the WHITESTAR Signature® Phacoemulsification System (Signature, AMO, USA). The left eye was used as the normal eye. A 3.0-mm clear corneal tunnel incision was made at the position of 11 to 12 o'clock, and continuous curvilinear capsulorhexis was performed in the center of the anterior capsular membrane of the lens, with a torn capsule diameter of approximately 5.0 mm. Phacoemulsification was then performed to suction out the lens contents, including the nucleus of the lens and the residual lens cortex, with the setting of ultrasonication energy of 30-50% and the ultrasonication time of 4-6 min. At the end of the procedure, the New Zealand white rabbits were administered with tobramycin and dexamethasone eye ointment in the conjunctival sac.
Perfusate: balanced salt solution containing 1 mM NAM (refers to compound electrolyte intraocular irrigating solution, Shike®, Shenyang Xingqi Pharmaceutical Co., Ltd.): NAM was added to the balanced salt solution until the concentration of NAM in the perfusate was 1 mM; balanced salt solution containing 2.5 mM NAM: NAM was added to the balanced salt solution until the concentration of NAM in the perfusate was 2.5 mM; balanced salt solution containing 5 mM NAM: NAM was added to the balanced salt solution until the concentration of NAM in the perfusate was 5 mM; balanced salt solution alone as control group: an equal amount of PBS was added to the balanced salt solution.
Immunofluorescence staining: immunofluorescence detection of the expression of functional proteins ZO1 and ATP1A1.
Alizarin Red Staining: gross corneas of New Zealand rabbits were collected and fixed in sterile saline. The cornea was flattened by cutting it into four flaps using ophthalmic microscopic scissors. The corneas were stained with alizarin red staining solution for 2 min, followed by washing the corneas at least three times with sterile saline. Cover slips were put on, changes in the CECs of New Zealand rabbits were observed under a microscope, image acquisition was performed, and all experiments were repeated at least 3 times. Endothelial cell density, coefficient of variation, and hexagonal ratio were determined using alizarin red-stained images of New Zealand rabbit corneas. By using an endothelial microscope by 2 uninformed observers, cell density was normalized to the area of each image in square millimeters. For each image, an area containing at least 60 cells was selected.
Slit lamp photography: changes in corneal transparency in New Zealand rabbits were observed and recorded using a slit lamp.
Corneal thickness test: corneal thickness was analyzed and measured using optical coherence tomography (OCT) to measure central corneal thickness, with no less than three New Zealand rabbits measured at each time point.
Phacoemulsification was performed on New Zealand white rabbits, where NAM-containing intraocular perfusate was used for irrigation, and perfusate of the balanced salt solution alone was used as a control.

[2] = test system: mouse CECs; details: mice treated with high IOP, reported in the literature; cited from earlier work
[3] = test system: Human CECs line B4G12; experiment: Cellular assay: B4G12 cell damage induced by phacoemulsification in vitro; assay type: cell-based; details: 1 mM, 2.5 mM and 5 mM NAM; 1 hour and 24 hours after phacoemulsification; sonication 20 seconds, energy 30%; FIG. 8
Experimental: Preparation for cell culture in vitro: Human CECs line B4G12 was selected for culture, original medium was discarded, 3 mL of PBS buffer was added, 6.0 cm cell culture dish was shaken gently, rinsed twice, and PBS buffer was discarded. 1.0 mL of trypsin was added to completely cover the bottom of the dish, and the dish was placed in the incubator for 5 min. The dish gently shaken, tapped, and observed with a microscope. The adherent cells became suspended round cells, then 1.5 mL of complete medium [each 50 mL of human corneal endothelial cell basal medium (H-SFM, Creative Bioarray, New York, USA) supplemented with 1.5 mL of FBS and 0.5 mL of penicillin-streptomycin solution] was added to the flask on the laminar flow cabinet, and trypsin digestion of cells was stopped. The cells on all parts of the bottom of the flask were gently pipetted using the tip of the pipettor so that the cells became fully in suspension. The cell suspension was transferred to a 15 mL centrifuge tube and subjected to centrifugation at 1200 rpm for 5 min. After the centrifugation, the supernatant was discarded, 3 mL of complete medium was added to the centrifuge tube, and a resulting mixture was gently pipetted to eveness. The cells were allowed to resuspend sufficiently, then inoculated into 48-well cell culture plates at a cell density of 1×10^5 and incubated for 24 hours for subsequent experiments. […]

Row | SMILES | corneal transparency / edema [1] | recovery of corneal thickness [1] | protective effect on CECs in phacoemulsification [1] | protective effect on CECs during high IOP treatment [2] | intraocular pressure (IOP) after phacoemulsification ([1]; within 7 days after surgery, versus control group, FIG. 4) | apoptosis and cell survival of B4G12 cells after phacoemulsification [3]
1 | NC(=O)CC[C@H](N)C(=O)O [Gln, glutamine] | still edematous | recovered more slowly | poor protective effect | protective effect on CECs in mice treated with high IOP | – | –
2 | NC(=O)c1cccnc1 [NAM, nicotinamide] | transparent | recovered quickly | has a protective effect on CECs | – | did not cause a pathological increase in IOP within 7 days after surgery | could inhibit apoptosis induced by phacoemulsification and promote cell survival in a concentration-dependent manner
